Among the data in PubChem BioAssay AID248 (DTP/NCI, 2004) are T/C values, retold here.

The subject of this experiment is L1210 leukemia ip in BDF1 mice, survival T/C. In words: NCI In Vivo Anticancer Drug Screen. Data for tumor model L1210 Leukemia (intraperitoneal) in B6D2F1 (BDF1) mice. Conditions: endpoint: mean survival time, higher = longer survival. The method in brief:
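Tumor cells were implanted, animals were treated, and survival was followed. The result divides the treated measurement by the vehicle-control measurement.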

The mark [1] stands for this setting: dose: 100.0 mg/kg/injection, schedule: Q04DX003 (ip), vehicle: Klucel (hydroxypropylcellulose) (HPC).
[2] abbreviates: dose: 200.0 mg/kg/injection, schedule: Q04DX003 (ip), vehicle: Klucel (hydroxypropylcellulose) (HPC).
Where [3] appears, read: dose: 400.0 mg/kg/injection, schedule: Q04DX003 (ip), vehicle: Klucel (hydroxypropylcellulose) (HPC).
The mark [4] stands for this setting: dose: 100.0 mg/kg/injection, schedule: Q01DX009 (ip), vehicle: Klucel (hydroxypropylcellulose) (HPC).
Where [5] appears, read: dose: 200.0 mg/kg/injection, schedule: Q01DX009 (ip), vehicle: Klucel (hydroxypropylcellulose) (HPC).
Setting [6] is: dose: 400.0 mg/kg/injection, schedule: Q01DX009 (ip), vehicle: Klucel (hydroxypropylcellulose) (HPC).
Where [7] appears, read: dose: 75.0 mg/kg/injection, schedule: Q01DX001 (ip), vehicle: saline.
Setting [8] is: dose: 150.0 mg/kg/injection, schedule: Q01DX001 (ip), vehicle: saline.
Setting [9] is: dose: 300.0 mg/kg/injection, schedule: Q01DX001 (ip), vehicle: saline.
[10] abbreviates: dose: 100.0 mg/kg/injection, schedule: Q04DX003 (ip), vehicle: saline with Tween-80.
The mark [11] stands for this setting: dose: 200.0 mg/kg/injection, schedule: Q04DX003 (ip), vehicle: saline with Tween-80.
Setting [12] is: dose: 400.0 mg/kg/injection, schedule: Q04DX003 (ip), vehicle: saline with Tween-80.
Where [13] appears, read: dose: 100.0 mg/kg/injection, schedule: Q01DX009 (ip), vehicle: saline with Tween-80.
The mark [14] stands for this setting: dose: 200.0 mg/kg/injection, schedule: Q01DX009 (ip), vehicle: saline with Tween-80.

“And” between values parts separate entries of the source, which are not always exact repeats. Identical values can stand only once. Toxic doses and inconclusive results are not listed.

For `Cc1ccc(NCN2C(=O)c3ccccc3C2=O)c(C)c1`, the T/C runs as follows: under setting [1], 105 % of control; under setting [2], 106 % of control; under setting [3], 94 % of control.

`O=C(Nc1cccc(C2=NCCN2)c1)Nc1cc(C(=O)Nc2ccc(C3=NCCN3)cc2)ccc1C(=O)Nc1ccc(C2=NCCN2)cc1`: the T/C was 121 % of control (dose: 1.88 mg/kg/injection, schedule: Q01DX Z (ip), vehicle: saline); 123 % of control (dose: 3.75 mg/kg/injection, schedule: Q01DX Z (ip), vehicle: saline); 98 % of control (dose: 3.75 mg/kg/injection, schedule: Q01DX Z (oral), vehicle: saline); 161 % of control (dose: 7.5 mg/kg/injection, schedule: Q01DX Z (ip), vehicle: saline); 104 % of control (dose: 7.5 mg/kg/injection, schedule: Q01DX Z (oral), vehicle: saline); 103 % of control (dose: 15.0 mg/kg/injection, schedule: Q01DX Z (oral), vehicle: saline). Besides, the T/C is 101 % of control (dose: 30.0 mg/kg/injection, schedule: Q01DX Z (oral), vehicle: saline); 101 % of control (dose: 62.5 mg/kg/injection, schedule: Q01DX010 (oral), vehicle: saline); 108 % of control (dose: 125.0 mg/kg/injection, schedule: Q01DX010 (oral), vehicle: saline); 105 % of control (dose: 250.0 mg/kg/injection, schedule: Q01DX010 (oral), vehicle: saline).

As to `CCOC(=O)c1cc(/C=C/c2ccccc2)[nH]c(=O)c1C#N`, the T/C runs as follows: under setting [4], 98 % of control; under setting [1], 95 % of control; under setting [5], 97 % of control; under setting [2], 93 % of control; under setting [6], 98 % of control; under setting [3], 90 % of control.

With `COc1cccc(C2Nc3cc(Cl)ccc3S2)c1O` (centres undefined), the T/C by setting is: under setting [7], 105 % of control; under setting [8], 109 % of control; under setting [9], 105 % of control.

`Nc1ccn(CC(=O)c2cc3ccccc3[nH]2)c(=O)n1`: the T/C is 101 % of control (dose: 100.0 mg/kg/injection, schedule: Q04DX002 (ip), vehicle: saline with Tween-80); 97 % of control (dose: 200.0 mg/kg/injection, schedule: Q04DX002 (ip), vehicle: saline with Tween-80); 108 % of control (dose: 400.0 mg/kg/injection, schedule: Q04DX002 (ip), vehicle: saline with Tween-80).

For `O=C(O)CC1CCCCC1c1ccccc1` (centres undefined), the T/C by setting is: under setting [4], 98 % of control; under setting [1], 96 % of control; under setting [5], 100 % of control; under setting [2], 106 % of control; under setting [6], 87 % of control; under setting [3], 95 % of control.

Turning to `C#CC(C)(C)C(C(=O)OCC)C(=O)OCC`, the T/C (dose: 75.0 mg/kg/injection, schedule: Q01DX009 (ip), vehicle: Klucel (hydroxypropylcellulose) (HPC)) was 102 % of control; the T/C (dose: 150.0 mg/kg/injection, schedule: Q01DX009 (ip), vehicle: Klucel (hydroxypropylcellulose) (HPC)) was 100 % of control; the T/C (dose: 300.0 mg/kg/injection, schedule: Q01DX009 (ip), vehicle: Klucel (hydroxypropylcellulose) (HPC)) was 97 % of control.

In the case of `O=C1c2cc(Cl)ccc2-c2c(F)cc(Cl)cc21`, the T/C is 103 % of control (dose: 100.0 mg/kg/injection, schedule: Q01DX001 (ip), vehicle: carboxymethylcellulose (CMC)); 105 % of control (dose: 200.0 mg/kg/injection, schedule: Q01DX001 (ip), vehicle: carboxymethylcellulose (CMC)); 105 % of control (dose: 400.0 mg/kg/injection, schedule: Q01DX001 (ip), vehicle: carboxymethylcellulose (CMC)).

In the case of `CCCCCCSC(=O)Nc1ccc(C)c(NC(=O)SCCCCCC)c1`, the T/C was 91 % of control under setting [10] and 89 % of control under setting [11].

With `O=C(Nc1ccc(C2=NCCN2)cc1)c1ccc(C(=O)Nc2ccc(C3=NCCN3)cc2)c2ccccc12`, the T/C reads like this: (dose: 3.75 mg/kg/injection, schedule: Q01DX Z (ip), vehicle: methylcellulose (MC)) 102 % of control; (dose: 7.5 mg/kg/injection, schedule: Q01DX Z (ip), vehicle: methylcellulose (MC)) 118 % of control; (dose: 15.0 mg/kg/injection, schedule: Q01DX Z (ip), vehicle: methylcellulose (MC)) 169 % of control; (dose: 30.0 mg/kg/injection, schedule: Q01DX Z (ip), vehicle: methylcellulose (MC)) 166 % of control and 170 % of control; (dose: 30.0 mg/kg/injection, schedule: Q01DX Z (oral), vehicle: carboxymethylcellulose (CMC)) 102 % of control; (dose: 120.0 mg/kg/injection, schedule: Q01DX Z (oral), vehicle: carboxymethylcellulose (CMC)) 94 % of control.

Take `CCOC(=O)c1c(N)sc2c1CCCC2`: the T/C is, setting by setting: (dose: 100.0 mg/kg/injection, schedule: Q01DX009 (ip), vehicle: saline sonified) 102 % of control; under setting [10], 95 % of control; (dose: 200.0 mg/kg/injection, schedule: Q01DX009 (ip), vehicle: saline sonified) 89 % of control; under setting [11], 103 % of control; (dose: 400.0 mg/kg/injection, schedule: Q01DX009 (ip), vehicle: saline sonified) 105 % of control; under setting [12], 97 % of control.

`COC(=O)CCC(=O)Nc1ccccc1`: the T/C reads like this: under setting [10], 101 % of control; under setting [11], 95 % of control; under setting [12], 95 % of control.

With `CCCCCCCCCCCCCC(CCCCCC)c1ccccc1` (centres undefined), the T/C (dose: 100.0 mg/kg/injection, schedule: Q01DX001 (ip), vehicle: saline + alcohol) is 119 % of control; the T/C (dose: 200.0 mg/kg/injection, schedule: Q01DX001 (ip), vehicle: saline + alcohol) was 106 % of control; the T/C (dose: 400.0 mg/kg/injection, schedule: Q01DX001 (ip), vehicle: saline + alcohol) was 95 % of control.

Turning to `O=C(O)c1ccccc1N1C(=O)c2ccccc2C1=O`, the T/C was 91 % of control (dose: 100.0 mg/kg/injection, schedule: Q01DX001 (ip), vehicle: saline); 96 % of control (dose: 200.0 mg/kg/injection, schedule: Q01DX001 (ip), vehicle: saline); 94 % of control (dose: 400.0 mg/kg/injection, schedule: Q01DX001 (ip), vehicle: saline).

Regarding `CC(=O)C(Br)CC(C)C` (centres undefined), the T/C under setting [7] was 102 % of control, the T/C under setting [8] is 105 % of control and the T/C under setting [9] was 100 % of control.

Consider `CC1(C)N=C(N)N=C(N)N1c1cccc(C(=O)Nc2ccc(S(=O)(=O)F)cc2)c1`, for which the T/C is 98 % of control (dose: 0.8 mg/kg/injection, schedule: Q01DX009 (ip), vehicle: saline); 101 % of control (dose: 4.0 mg/kg/injection, schedule: Q01DX009 (ip), vehicle: saline); 98 % of control (dose: 20.0 mg/kg/injection, schedule: Q01DX009 (ip), vehicle: saline).

Turning to `Cc1cc2c(C)nc3ccccc3n2c1O`, the T/C by setting is: (dose: 50.0 mg/kg/injection, schedule: Q01DX009 (ip), vehicle: Klucel (hydroxypropylcellulose) (HPC)) 103 % of control; under setting [4], 103 % of control; under setting [5], 98 % of control.

Consider `CCOC(CN1C(=O)c2ccccc2C1=O)OCC`, for which the T/C is, setting by setting: (dose: 50.0 mg/kg/injection, schedule: Q01DX009 (ip), vehicle: saline with Tween-80) 96 % of control; under setting [13], 96 % of control; under setting [14], 93 % of control.

As to `Cc1ccc(NC(=O)ON(C)C)cc1`, the T/C is 99 % of control (dose: 25.0 mg/kg/injection, schedule: Q04DX002 (ip), vehicle: other); 96 % of control (dose: 50.0 mg/kg/injection, schedule: Q04DX002 (ip), vehicle: other); 92 % of control (dose: 100.0 mg/kg/injection, schedule: Q04DX002 (ip), vehicle: other).

Consider `CCOC(=O)C(=O)c1ccccc1`, for which the T/C is, setting by setting: under setting [13], 100 % of control; under setting [10], 96 % of control; under setting [14], 103 % of control; under setting [11], 103 % of control; (dose: 400.0 mg/kg/injection, schedule: Q01DX009 (ip), vehicle: saline with Tween-80) 97 % of control; under setting [12], 103 % of control.

`[N-]=[N+]=CC(=O)CCC(=O)C=[N+]=[N-]`: the T/C was 98 % of control (dose: 0.75 mg/kg/injection, schedule: Q01DX009 (ip), vehicle: other); 116 % of control (dose: 1.5 mg/kg/injection, schedule: Q01DX009 (ip), vehicle: other); 116 % of control (dose: 6.0 mg/kg/injection, schedule: Q01DX009 (ip), vehicle: other).
